Broadly, the Inhibition is the change of the read-out against control, counted positive when it falls.

The test relates to Cryptosporidium parvum. The test is described as follows: MMV: Cryptosporidium parvum oocysts (Iowa Strain) were prepared for use by treatment with 10 mM HCl (37 degrees C, 10 min) followed by 2 mM sodium taurocholate in phosphate-buffered saline (PBS) with Ca2+ and Mg2+ (16 degrees C, 10 min) in order to stimulate excystation. The high-throughput screen was carried out by inoculating >90% confluent human ileocecal adenocarcinoma (HCT-8) cells (ATCC) with ~5.5 x 10^3 primed oocysts per well. Experimental compounds or DMSO (vehicle) were added three hours after infection, and cells were incubated for 48 hours. It counts as functional.
In the case of `CCOc1cc(CNC(C)C(O)c2ccccc2)cc(Cl)c1OCC` (stereo not given), the Inhibition was 29.95%.

With `Cc1cc(NC(=O)c2cccc(C(F)(F)F)c2)n(-c2nc(-c3ccc4c(c3)OCO4)cs2)n1`, the Inhibition is reported as -22.88%.

Take `Cc1cccc(-n2ncc3c(O)nc(-n4nc(C)cc4NC(=O)c4cc5ccccc5o4)nc32)c1`: the Inhibition turned out to be 82.48%.

Take `O=C(Nc1ccccc1O)c1ccc(Oc2cccc(C(=O)Nc3ccccc3O)c2)cc1`: the Inhibition was -14.93%.

In the case of `Oc1ccccc1CN1CCC2(CCCN(Cc3ccccc3F)C2)C1` (stereo not given), the Inhibition is recorded as -2.723%.

Regarding `Cl.N=c1n(CCN2CCCCC2)c2ccccc2n1CC(O)c1cccc(Br)c1` (stereo not given), the Inhibition is on record as 3.872%.

For the molecule `COc1cccc(O)c1CN1CCC2(CCCN(Cc3ccc(F)cc3)C2)C1` (stereo not given), the Inhibition is given as 46%.

With `COc1cccc(Nc2nc(NCCO)c3ccccc3n2)c1.Cl`, the Inhibition turned out to be 65.39%.

For `Cc1ccc(-c2cc(C(=O)Nc3ccc(S(=O)(=O)N4CCCCC4)cc3)[nH]n2)c(O)c1`, the Inhibition was -59.17%.

For the molecule `O=C(NCc1ccco1)C1CCN(S(=O)(=O)c2ccc(Cl)cc2)CC1`, the Inhibition is reported as -53.31%.

As to `COc1ccc(C(=O)Nc2ccc3nc(N4CCCCC4)cc(C)c3c2)cc1OC`, the Inhibition stood at 6.852%.

Take `COCCNCC(O)Cn1c2ccc(Cl)cc2c2cc(Cl)ccc21` (stereo not given): the Inhibition is given as -20.11%.

`COc1ccc(N2CCN(C(CNC(=O)C3CCCCC3)c3ccc4c(c3)OCO4)CC2)cc1` (stereo not given): the Inhibition was -25.24%.

On to `FC(F)(F)c1ccc(Nc2nnnc3ccccc23)cc1`, for which the Inhibition is -4.73%.

As for `O=C(NC1CCN(Cc2ccccc2)CC1)c1cc(-c2ccncc2)nc2ccc(Cl)cc12`, the Inhibition is recorded as 13.62%.

For the molecule `c1ccc(-c2ccc(-c3nc4ccccc4[nH]3)cc2)cc1`, the Inhibition is 27.1%.

In the case of `CCC(C)NCC(O)(c1ccc(Cl)cc1)c1ccc(Cl)cc1` (stereo not given), the Inhibition is -5.937%.

As to `COc1cc2cc(C(=O)Nc3ccccc3)c(N)nc2cc1OC`, the Inhibition is given as -19.13%.

With `COc1cccc(NC(=O)Cn2c(C)c(C#N)c3ccccc32)c1`, the Inhibition came to 14.16%.

In the case of `Cn1c(=O)c2cc(C(=O)NCCCN3CCCCCC3)sc2c2ccccc21`, the Inhibition is recorded as -13.68%.

Consider `Cc1[nH]c(-c2ccc(F)cc2)cc1C(=O)NC1CCN(Cc2ccccc2)CC1`, for which the Inhibition was -23.5%.

On to `COc1ccc(CCN2CCC(CN(C)Cc3cnn(-c4ccccc4)c3)CC2)cc1`, for which the Inhibition is -0.7856%.

In the case of `O=C(NC(c1ccccc1)c1ccc2cccnc2c1O)c1ccccc1` (stereo not given), the Inhibition is reported as 59.29%.

For `COCCNC(=O)c1ccc(OC2CCN(Cc3ccc(F)c(F)c3)CC2)c(Cl)c1`, the Inhibition came to 10.52%.

On to `O=C(O)C(=O)O.Oc1ccccc1CN1CCN(C(c2ccccc2)c2ccccc2)CC1`, for which the Inhibition is on record as -3.109%.

`O=C(NC1CCCC1)c1ccc(N2CCC(NCc3cccc(C(F)(F)F)c3)CC2)cc1`: the Inhibition was -29.41%.

As to `CCOc1cc(Br)c(C(C)NC(=O)c2cccc(OC)c2)cc1OCC` (stereo not given), the Inhibition was -25.9%.

As for `CC(C)=CCN1CCC(C(=O)Nc2ccc(-c3nc4ccccc4[nH]3)cc2)CC1`, the Inhibition is -41.53%.

As for `CCN(CC)CCn1c(=N)n(CC(O)c2ccc(Cl)c(Cl)c2)c2ccccc21.Cl` (stereo not given), the Inhibition amounted to 14.91%.

In the case of `CCOc1cc(Cl)c(C(C)NC(=O)c2cccc(OC)c2)cc1OCC` (stereo not given), the Inhibition is reported as -11.62%.

Regarding `O=C(CCc1ccco1)NC1CCN(CC2(c3ccc(Cl)cc3)CCC2)CC1`, the Inhibition is given as -27.18%.

As for `FC(F)(F)c1cccc(Nc2nc(-c3ccccc3)nc3ncccc23)c1`, the Inhibition is reported as -10.43%.

For the molecule `CCN1CCN(c2cc(C)c3cc(NC(=O)c4ccc(OC)c(OC)c4)ccc3n2)CC1`, the Inhibition was -21.17%.

Regarding `Cc1ccc(Cl)cc1N1CCN(CCCNC(=O)C2CCN(c3nc4ccccc4[nH]3)CC2)CC1`, the Inhibition is given as -53.53%.

With `COc1ccc(CNC2CCN(c3ccc(NC(=O)c4cccc(Cl)c4)cc3)CC2)cc1OC`, the Inhibition was -38.21%.

As to `COCCN(C(=O)Cc1cccs1)C(C(=O)NCc1ccc(OC)cc1)c1ccc(C(C)C)cc1` (stereo not given), the Inhibition turned out to be 3.107%.

For `Cc1ccc(CSCc2ccc(C(=O)NC3CC3)o2)cc1`, the Inhibition was -11.49%.

Take `CC(NCc1ccccc1)c1cc(Cl)ccc1O` (stereo not given): the Inhibition is on record as -51.25%.

For the molecule `CN1CCN(c2c3c(c(C#N)c4nc5ccccc5n24)CCC3)CC1`, the Inhibition is -1.609%.

Turning to `CCOc1ccc(C2N(C)c3ccccc3N2C)cc1`, the Inhibition is listed as -19.63%.

As to `FC(F)(F)c1cccc(CNC2CCN(CCc3ccccc3)CC2)c1`, the Inhibition is given as -52.87%.

In the case of `O=C(c1ccccc1F)N(Cc1ccc(Cl)cc1)c1ccccn1`, the Inhibition is -0.1452%.

As for `COc1ccc(C(=O)Nc2ccc(Cl)cc2C(=O)Nc2ccncc2)cc1`, the Inhibition is recorded as -23.38%.

On to `O=C(Nc1ccc(CN2CCOCC2)cc1)c1ccc(-c2ccc(Br)cc2)o1`, for which the Inhibition was 0.1242%.

Turning to `CC(=O)NCCc1nc2ccccc2n1Cc1ccc(C(C)C)cc1`, the Inhibition turned out to be 0.2505%.

As for `COc1nc(Nc2ccc(C(C)C)cc2)nc(OC)n1`, the Inhibition was 4.363%.

Regarding `CCN(CC)CCNc1ncnc2c1[nH]c1ccc(Br)cc12`, the Inhibition was -47.02%.

With `CCOc1cccc(C(=O)Nc2ccc(-c3nc4ccccc4[nH]3)cc2)c1`, the Inhibition is listed as -2.618%.

Turning to `CN(C)c1ccc(-c2nc3cc(N)ccc3[nH]2)cc1`, the Inhibition is -41.71%.

Regarding `Cl.Clc1cc(Br)ccc1-c1ccc(CNCC2CCNCC2)o1`, the Inhibition came out at 26.78%.

In the case of `O=C(CSc1ccc2nnc(-c3cccc(F)c3)n2n1)Nc1ccc2c(c1)OCO2`, the Inhibition is given as -19.97%.

With `Cc1c(C)n(Cc2ccc(F)cc2)c2ccc(C(=O)NCc3ccco3)cc12`, the Inhibition is given as -17.08%.

Consider `CCN(CC)c1ccc(NC(=O)c2cccs2)cc1`, for which the Inhibition is -55.73%.

For `CCCCNCC(O)(c1ccc(Cl)cc1)c1ccc(Cl)cc1`, the Inhibition is on record as 9.548%.

In the case of `CCCC(c1nnnn1C1CCCCC1)N1CCN(C(=O)c2ccco2)CC1.Cl` (stereo not given), the Inhibition is recorded as -55.52%.

Take `CC(C)(C)C(=O)Nc1ccc(C(=O)Nc2cccc(-c3nc4ccccc4[nH]3)c2)cc1`: the Inhibition is recorded as 18.85%.

Turning to `COc1ccc(-c2nonc2NC(=O)c2cccc(C)c2)cc1OC`, the Inhibition stood at 4.698%.

Take `COc1cccc(-c2nn(C)c3sc(C(=O)NCCN4CCN(c5ccccc5F)CC4)cc23)c1`: the Inhibition came to 60.49%.

Consider `O=C(Nc1ccc(N2CCN(Cc3ccccc3)CC2)cc1)c1cccs1.O=C(O)C(F)(F)F`, for which the Inhibition is given as -70.26%.

For `Cc1ccc(CN2CCC(C(=O)Nc3ccc(-c4cc5ccccc5[nH]4)cc3)CC2)o1`, the Inhibition stood at 45.39%.

Take `O=C(Nc1ccc(N2CCCCC2)c(Cl)c1)c1ccc(Br)o1`: the Inhibition is -27.15%.

For `Cc1cc(C)c2nc(N3CCC(C(=O)NCCCN4CCC(N5CCCCC5)CC4)CC3)sc2c1`, the Inhibition is reported as -56.98%.

For `O=C(Nc1ccsc1C(=O)NC1CCCCC1)c1ccc(F)cc1`, the Inhibition is listed as -24.81%.

For `O=C(Nc1cccc(C(F)(F)F)c1)c1cc(Cl)ccc1O`, the Inhibition is reported as 41.48%.

Take `CC(C)(C)c1ccc(C(=O)Nc2nc3ccccc3s2)cc1`: the Inhibition came to 63.38%.

Consider `CCOc1cccc2sc(N(Cc3cccnc3)C(=O)C3CCCCC3)nc12`, for which the Inhibition was -38.34%.

In the case of `CC1CC(C)CN(C(=O)c2ccc(Cl)cc2Cl)C1` (stereo not given), the Inhibition is given as -45.44%.

With `COc1ccccc1CNC(=O)C1c2ccccc2C(=O)N(CC(C)C)C1c1cccs1` (stereo not given), the Inhibition is on record as 58.94%.

As to `OC(CNC1CCCC1)Cn1c2ccccc2c2ccccc21` (stereo not given), the Inhibition was -40.56%.

As for `COc1ccc(C2N(C)c3ccccc3N2C)cc1`, the Inhibition is -12.31%.

`CCN(CC)c1cc(C)c2cc(NC(=O)c3cccc(OC)c3)ccc2n1`: the Inhibition is recorded as -27.53%.

Take `CCOc1ccc(/C=C/c2nc(=O)c3ccccc3o2)cc1`: the Inhibition is given as -0.2946%.

Take `O=C(Nc1ccccc1O)c1ccc(-c2ccc(Cl)cc2Cl)o1`: the Inhibition is reported as -8.773%.

Turning to `CC(C)OCc1cc(CN2CCN(c3cccc(Cl)c3)CC2)c(O)c2ncccc12`, the Inhibition turned out to be 54.97%.

For `O=C(Nc1nc(-c2ccccn2)cs1)c1ccccc1Br`, the Inhibition is recorded as 62.15%.

Regarding `O=C(Nc1ccc(F)c(Cl)c1)Nc1ccc(Cl)c(Cl)c1`, the Inhibition came to 36.98%.

With `CC(O)(c1ccc(Cl)cc1)C(CN1CCCCC1)c1ccccc1.Cl` (stereo not given), the Inhibition is on record as 15.77%.

As for `CCOc1ccc(-c2nc(NC(=O)c3cccc(S(C)(=O)=O)c3)sc2C)cc1`, the Inhibition is listed as 26.25%.

As to `CCOc1ccccc1CNC(=O)C1c2ccccc2C(=O)N(CC(C)C)C1c1cccs1` (stereo not given), the Inhibition was -30.75%.

In the case of `Clc1ccc2[nH]c3c(NCCCN4CCOCC4)ncnc3c2c1`, the Inhibition was 37.37%.

For `COc1ccccc1N1CCN(C(CNS(=O)(=O)c2ccc(Cl)cc2)c2cccnc2)CC1` (stereo not given), the Inhibition turned out to be 38.78%.

For the molecule `CCCc1c(C)nc2ccccc2c1O`, the Inhibition is listed as -14.82%.

Take `CCOc1c(Cl)cc(CNC(C)C(O)c2ccccc2)cc1OC` (stereo not given): the Inhibition is reported as -2.917%.

Take `CCCN(CCC)CCCNC(=O)c1cc2c(-c3ccc(OC)c(OC)c3)nn(C)c2s1`: the Inhibition was determined as 32.69%.

On to `CCN(CC)CCCNc1nc(-c2ccc(Cl)cc2)nc2ccccc12`, for which the Inhibition was -30.51%.

With `CN1c2ccccc2N(C)C1c1ccc2c(c1)OCO2`, the Inhibition is -58.41%.

With `O=C(NCC1Cc2cccc(-c3ccncc3)c2O1)c1csc2c1CCCC2` (stereo not given), the Inhibition came to 13.55%.

Turning to `CCc1ccc(Nc2cc(C)nc3nc(C)nn23)cc1`, the Inhibition is recorded as -3.889%.

For the molecule `C=C(C)CCC(C)N1CCC(N2CCC(C(=O)NCCc3ccccc3)CC2)CC1` (stereo not given), the Inhibition is -27.27%.

As for `C=CCc1c(C)nc2ccccc2c1O`, the Inhibition was -10.8%.

For the origin of these results see ChEMBL document CHEMBL3137356, “MMV Box Cryptosporidium parvum screening set”.
